{
  "source": "patent US9963457B2",
  "about": "“Crystal of 5-((2-(6-amino)-9H-purin-9-yl)ethyl)amino)pentan-1-o1” (FOREVER CHEER INTERNATIONAL LIMITED, priority 2016, dated 2018)",
  "key": {"[1]": {"test_system": "bone cancer pain model in rat (Walker 256 cells)", "assay": "Paw withdrawal thermal latency (PWL) in bone cancer pain model", "format": "in vivo, SD rats", "conditions": "twice daily for 3 days, PWL at 2 h after last administration (21d)", "experimental": "1. Animals 50 SD rats (180-220 g), placed under a quiet and warm (22° C.) environment without strong light irradiation, having free access to feed and water.\n2. Cell Culture: SD Rat homologous cancer cell strains Walker 256 preserved by the Laboratory Animal Center, Forth Military Medical\nUniversity, or a commercially available product can be used. RPMI 1640 culture medium (Gibco Inc. of US, containing 100 U/ml each of 10% fetal bovine serum, penicillin, and streptomycin) was used, and the tumor cells were incubated as suspension cells in a 37° C. incubator under 5% CO2, with the medium replaced every other day, and 2 days for 1 passage. The cells were harvested at the 3rd passage, with a cell concentration of 2×10^5/10 μl.\n3. Establishment of bone cancer pain model in rat: the rats were operated at the left knee with a small incision after anesthesia (40 mg/kg of pentobarbital sodium) according to sterile surgical operation procedures, the muscle was stripped off gently and the patellar ligament is cut open to expose the distal femur, with 1 mm syringe needle inserted from the intercondylar fossa vertically into the marrow cavity, with an inserting distance no more than 5 mm to prevent punching. Then a 20 μl micro-injector was inserted into the marrow cavity to slowly inject 10 μl of a suspension containing the Walker 256 cells (2×10^5 cancer cells per 10 μl). The injector was stayed there for a few minutes after the injection, and then the needle pinhole was immediately sealed with sterile bone wax. The tumor cells leaking out of the marrow cavity were killed with 75% ethyl alcohol, and then the rat was sutured under sterile conditions layer by layer. The same operation was performed in the sham operation group, except that only the same volume of sterile saline was injected into the marrow cavity slowly.\n6. Drug intervention: On day 18 after the surgical operation, the SD rats of the operation group were randomized into 6 groups, i.e., respectively the model group; non-crystalline NB001 group (20 mg/kg, i.g.); the group of the crystal of the present invention (20 mg/kg, i.g.); morphine (2 mg/kg, i.p.); and gabapentin (100 mg/kg, i.g.). The new crystal form and non-crystalline form of the AC1 inhibitor NB001 were both formulated with sterile saline, and morphine and gabapentin were used as positive control drugs. All drugs were administered twice daily for 3 days, and the pain threshold was measured within 2 hours after the last administration on day 3\n7. Assessment of rat pain behavior:\nPaw withdrawal thermal latency (PWL): the PWL was measured by using a PL-200 thermal pain stimulator (8V, 50 W, with a strength of 100%). The time period since the time irradiating the middle portion of the planta pedis at the operation side of the rat with light till the time the rat lifted its leg to keep out of the light was TWL. To prevent tissue injury, a cut-off time of 80 s was set, each rat was measured for 3 times with an interval of 5 min, and the results were averaged."}, "[2]": {"test_system": "mice treated with yeast polysaccharide", "assay": "Visceral pain behavior test in chronic visceral pain model", "format": "in vivo", "conditions": "for Number of visceral pain scores: 28 days after yeast polysaccharide treatment", "experimental": "Chronic Visceral Pain Model\n(§1) The visceral pain is induced by injecting yeast polysaccharide into the mice colony, and the yeast polysaccharide is derived from Saccharomyces cerevisiae (Sigma), wherein one kind of dextran is resident on the cell wall of the yeast and is identified as a protein-carbohydrate complex. Specifically, the mice were anesthetized after inhaling 1-3% isoflurane, and then a […] suspension of yeast polysaccharide (formulated as a 30 mg/ml solution in physiological saline) was injected into the colon of the mice by using a 24 mm long plastic feed needle within 2 minutes. The control group was injected with 0.1 ml physiological saline. The yeast polysaccharide or physiological saline was injected daily for 3 days. A visceral pain behavior test was carried out according to the Laird procedure. The number of times the mice licking the abdomen within 10 minutes was recorded, excluding other grooming behaviors, stretching of whole body, pressing the abdomen against the floor, and an 1-2-second arched posture. On day 1, 7 and 14 after the injection into the colon, an open field test was carried out from 9 am to 12 pm, and the entire test was a double-blind test. Prior to the behavioral test, the mice were acclimated for 30 minutes in an observation room. The mice were placed at the middle of a new open zone (43.2×43.2×30.5 cm^3) with micro light (<50 lux) and a fan. The movement distance, vertical count, movement count, stereotypic behavior count, and jumping count of animals were recorded within 30 minutes by means of an activity monitoring system equipped with multiple pairs of packaged light beam sets.\n(§2) The physiological saline, non-crystalline NB001 (3 mg/kg), the crystal of the present invention (3 mg/kg), and Gabapentin (30 mg/kg) as a positive control were intraperitoneally injected (IP) into the mice treated with yeast polysaccharide respectively. The behaviors of Mice were observed 28 days after the yeast polysaccharide treatment."}, "[3]": {"test_system": "mice after neuropathic pain", "assay": "Elevated plus maze test (EPM), neuropathic pain", "format": "in vivo", "experimental": "(§3) An anxious animal model of the prior art—the elevated plus maze test (EPM) was adopted. The mice were acclimated for 30 minutes in the room prior to the behavior observation. The EPM was composed of two open arms (250 lux) and two closed arms (350 lux) arranged opposite to each other. For each test, an individual animal was placed at the center of the test position and allowed to move freely. The test is carried out for 5 minutes. The number of entering the test position for each arm and the time spent therefore were recorded.\nThe other two sets of tests were conducted to test the effect of the crystal of the present invention on inhibiting anxiety caused by chronic pain and neuropathic pain.\nas §2, with “The EPM test tested the anxiety behavior of mice after the test treatment. The physiological” for “The physiological”"}, "[4]": {"test_system": "mice treated with yeast polysaccharide", "assay": "Elevated plus maze test (EPM), visceral pain", "format": "in vivo", "conditions": "for % time in the open arm: Visceral pain", "experimental": "as §1, §3\nas §2, with “The EPM test tested the anxiety behavior of mice after the test treatment. The physiological” for “The physiological”"}, "[5]": {"test_system": "mice after neuropathic pain", "assay": "Bright/dark box test, neuropathic pain", "format": "in vivo"}, "[6]": {"test_system": "mice treated with yeast polysaccharide", "assay": "Bright/dark box test, visceral pain", "format": "in vivo", "conditions": "for % time in the open arm: Bright/dark box test, Visceral pain", "experimental": "as §1\nBright/dark box test: The test procedure was carried out by using an improved method in accordance with the prior art. The device was composed of a rectangular organic glass box (44×8.5×25 cm^3), which is separated into bright and dark compartments with the equal size by using a door. A 60 watt lamp (400 lux) in turn-on state was placed at 30 cm above the box to irradiate the bright compartment. Each animal was first placed in the dark compartment for 20 seconds, and then the door leading to the bright compartment was open. The time each animal stayed in the dark compartment and the time each animal enters the bright compartment within 10 minutes were recorded.\nas §2, with “In order to confirm the effect of the crystal of the present invention on inhibiting anxiety, mice were subjected to a bright/dark box test, and the results were as shown in Table 8. The physiological” for “The physiological”"}, "[7]": {"assay": "Approximate solubility of BPCs in organic solvent and mixed solvent", "format": "physicochemical", "conditions": "organic solvent or mixture, thermodynamic from solid", "experimental": "Into 7 mL vials were weighed 2.0 mg of the raw material respectively. Then appropriate amount of methanol, ethanol, isopropyl alcohol, n-butanol, acetonitrile, acetone, ethyl acetate, 2-methyl tetrahydrofuran, tetrahydrofuran, dioxane, n-pentyl alcohol, toluene, isopropyl alcohol+water (with a mass ratio of 3:1), acetonitrile+water (with a mass ratio of 3:1), acetone+water (with a mass ratio of 3:1), and ethanol+water (with a mass ratio of 3:1) were added into respective vials, and the mixture was shaken rapidly to dissolve the compound of the mixture until the solution becomes clear. The approximate solubility of the resultant bulk pharmaceutical chemicals (BPC) in an organic solvent and a mixed solvent was shown in Table 1 below."}, "[8]": {"target": "adenylate cyclase 1 (Homo sapiens, UniProt Q08828)", "sequence (Q08828 whole entry)": "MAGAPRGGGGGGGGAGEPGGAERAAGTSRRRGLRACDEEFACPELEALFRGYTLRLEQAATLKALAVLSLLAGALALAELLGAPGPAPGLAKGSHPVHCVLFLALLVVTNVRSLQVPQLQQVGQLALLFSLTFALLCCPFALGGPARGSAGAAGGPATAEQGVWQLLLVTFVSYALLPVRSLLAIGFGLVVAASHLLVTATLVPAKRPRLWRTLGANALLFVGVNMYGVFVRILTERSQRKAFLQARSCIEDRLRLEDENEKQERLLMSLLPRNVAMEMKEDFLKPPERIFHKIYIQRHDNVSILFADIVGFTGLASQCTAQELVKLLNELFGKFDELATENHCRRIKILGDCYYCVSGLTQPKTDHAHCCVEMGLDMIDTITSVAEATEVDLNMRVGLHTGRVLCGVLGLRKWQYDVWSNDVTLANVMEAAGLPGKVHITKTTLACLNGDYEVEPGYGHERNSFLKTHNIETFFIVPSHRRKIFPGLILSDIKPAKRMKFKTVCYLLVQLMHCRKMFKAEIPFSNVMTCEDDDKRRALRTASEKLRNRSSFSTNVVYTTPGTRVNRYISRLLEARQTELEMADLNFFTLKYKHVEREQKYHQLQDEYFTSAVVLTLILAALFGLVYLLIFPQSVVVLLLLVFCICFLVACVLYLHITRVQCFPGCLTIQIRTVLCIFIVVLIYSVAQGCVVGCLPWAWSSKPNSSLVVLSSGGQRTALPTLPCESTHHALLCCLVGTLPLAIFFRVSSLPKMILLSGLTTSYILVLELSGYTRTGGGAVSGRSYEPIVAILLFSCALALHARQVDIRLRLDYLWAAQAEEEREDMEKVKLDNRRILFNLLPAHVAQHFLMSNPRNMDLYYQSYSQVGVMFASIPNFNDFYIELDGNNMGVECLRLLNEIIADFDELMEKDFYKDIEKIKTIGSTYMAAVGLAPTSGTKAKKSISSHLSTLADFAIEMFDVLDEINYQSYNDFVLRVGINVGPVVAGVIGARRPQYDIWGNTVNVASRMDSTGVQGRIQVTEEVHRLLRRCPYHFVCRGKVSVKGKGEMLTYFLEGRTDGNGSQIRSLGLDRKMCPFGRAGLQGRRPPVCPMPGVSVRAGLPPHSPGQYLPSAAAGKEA", "conditions": "described in WO2007/041863; cited from earlier work"}},
  "data": [
    {"smiles": "CN1CC[C@]23c4c5ccc(O)c4O[C@H]2[C@@H](O)C=C[C@H]3[C@H]1C5", "note": "[morphine, reference compound]", "values": [
      {"measurement": "analgesic effect (PWL) as compared with the model group", "setting": "[1]; 2 mg/kg, i.p.", "value": "better analgesic effect"}
    ]},
    {"smiles": "NCC1(CC(=O)O)CCCCC1", "note": "[Gabapentin, gabapentin, reference compound]", "values": [
      {"measurement": "analgesic effect (PWL) as compared with the model group", "setting": "[1]; 100 mg/kg, i.g.", "value": "better analgesic effect"},
      {"measurement": "Number of visceral pain scores", "setting": "[2]; 30 mg/kg IP", "value": "20.7 ± 1.9"},
      {"measurement": "% time in the open arm", "setting": "[3]; 30 mg/kg IP", "value": "9.6 ± 1.5 (7) %"},
      {"measurement": "% time in the open arm", "setting": "[4]; 30 mg/kg IP", "value": "8.6 ± 1.5 (8) %"},
      {"measurement": "% time in the open arm", "setting": "[5]; 30 mg/kg IP", "value": "9.6 ± 1.5 (7) %"},
      {"measurement": "% time in the open arm", "setting": "[6]; 30 mg/kg IP", "value": "8.6 ± 1.5 (8) %"}
    ]},
    {"smiles": "Nc1ncnc2c1ncn2CCNCCCCCO", "note": "[Old NB001, 5-(((2-(6-amino)-9H-purin-9-yl)ethyl)amino)pentan-1-ol]", "values": [
      {"measurement": "analgesic effect (PWL) as compared with the model group", "setting": "[1]; 20 mg/kg, i.g.", "value": "better analgesic effect"},
      {"measurement": "Number of visceral pain scores", "setting": "[2]; 3 mg/kg IP", "value": "19.6 ± 1.2"},
      {"measurement": "therapeutic effect on chronic pain as compared with the positive control group", "setting": "[2]; 3 mg/kg IP, Table 6, listed as non-crystalline NB001", "value": "significant therapeutic effects"},
      {"measurement": "therapeutic effect in EPM test as compared with the positive control group", "setting": "[4]; 3 mg/kg IP, Table 7, listed as non-crystalline NB001", "value": "significant therapeutic effects"},
      {"measurement": "therapeutic effect in bright/dark box test as compared with the positive control group", "setting": "[6]; 3 mg/kg IP, Table 8, listed as non-crystalline NB001", "value": "significant therapeutic effects"}
    ]},
    {"smiles": "Nc1ncnc2c1ncn2CCNCCCCCO", "note": "[NB001, 5-(((2-(6-amino)-9H-purin-9-yl)ethyl)amino)pentan-1-ol]", "values": [
      {"measurement": "solubility", "setting": "[7]; 2-methyl tetrahydrofuran", "value": "< 2000", "unit": "µg/mL"},
      {"measurement": "solubility", "setting": "[7]; acetone", "value": "< 2000", "unit": "µg/mL"},
      {"measurement": "solubility", "setting": "[7]; acetone/water (mass ratio 3:1)", "value": "100000 to 200000", "unit": "µg/mL"},
      {"measurement": "solubility", "setting": "[7]; acetonitrile", "value": "< 2000", "unit": "µg/mL"},
      {"measurement": "solubility", "setting": "[7]; acetonitrile/water (mass ratio 3:1)", "value": "100000 to 200000", "unit": "µg/mL"},
      {"measurement": "solubility", "setting": "[7]; dioxane", "value": "< 2000", "unit": "µg/mL"},
      {"measurement": "solubility", "setting": "[7]; ethanol", "value": "7000 to 10000", "unit": "µg/mL"},
      {"measurement": "solubility", "setting": "[7]; ethanol/water (mass ratio 3:1)", "value": "100000 to 200000", "unit": "µg/mL"},
      {"measurement": "solubility", "setting": "[7]; ethyl acetate", "value": "< 2000", "unit": "µg/mL"},
      {"measurement": "solubility", "setting": "[7]; isopropyl alcohol", "value": "~2000", "unit": "µg/mL"},
      {"measurement": "solubility", "setting": "[7]; isopropyl alcohol/water (mass ratio 3:1)", "value": "70000 to 100000", "unit": "µg/mL"},
      {"measurement": "solubility", "setting": "[7]; methanol", "value": "50000 to 66000", "unit": "µg/mL"},
      {"measurement": "solubility", "setting": "[7]; n-butanol", "value": "2200 to 2500", "unit": "µg/mL"},
      {"measurement": "solubility", "setting": "[7]; n-pentyl alcohol", "value": "3000 to 4000", "unit": "µg/mL"},
      {"measurement": "solubility", "setting": "[7]; tetrahydrofuran", "value": "< 2000", "unit": "µg/mL"},
      {"measurement": "solubility", "setting": "[7]; toluene", "value": "< 2000", "unit": "µg/mL"},
      {"measurement": "% time in the open arm", "setting": "[3]; 3 mg/kg IP, 3 mg/kg", "value": "10.1 ± 1.8 (8) %"},
      {"measurement": "% time in the open arm", "setting": "[4]; 3 mg/kg IP, 3 mg/kg", "value": "5.2 ± 0.7 (8) %"},
      {"measurement": "% time in the open arm", "setting": "[5]; 3 mg/kg IP, 3 mg/kg", "value": "10.1 ± 1.8 (8) %"},
      {"measurement": "% time in the open arm", "setting": "[6]; 3 mg/kg IP, 3 mg/kg", "value": "5.2 ± 0.7 (8) %"},
      {"measurement": "inhibition of adenylate cyclase 1", "setting": "[8]", "value": "capable of selectively inhibiting adenylate cyclase 1"}
    ]}
  ]
}
